Results on 2 compounds are retold here after PubChem BioAssay AID1794820.

The assay concerns the target Na(+)/dicarboxylate cotransporter 3 (Homo sapiens) (UniProt Q8WWT9). The assay can be described thus: NaDC3 cotransporter activation by substrates – membrane potential dye, HEK-293 overexpressing cells, dose response (AID 1794820). Particulars: HEK-293 SLC13A3 OE, FLIPR membrane potential dye.

Sequence of Na(+)/dicarboxylate cotransporter 3 (Homo sapiens) (Q8WWT9 whole entry, looked up): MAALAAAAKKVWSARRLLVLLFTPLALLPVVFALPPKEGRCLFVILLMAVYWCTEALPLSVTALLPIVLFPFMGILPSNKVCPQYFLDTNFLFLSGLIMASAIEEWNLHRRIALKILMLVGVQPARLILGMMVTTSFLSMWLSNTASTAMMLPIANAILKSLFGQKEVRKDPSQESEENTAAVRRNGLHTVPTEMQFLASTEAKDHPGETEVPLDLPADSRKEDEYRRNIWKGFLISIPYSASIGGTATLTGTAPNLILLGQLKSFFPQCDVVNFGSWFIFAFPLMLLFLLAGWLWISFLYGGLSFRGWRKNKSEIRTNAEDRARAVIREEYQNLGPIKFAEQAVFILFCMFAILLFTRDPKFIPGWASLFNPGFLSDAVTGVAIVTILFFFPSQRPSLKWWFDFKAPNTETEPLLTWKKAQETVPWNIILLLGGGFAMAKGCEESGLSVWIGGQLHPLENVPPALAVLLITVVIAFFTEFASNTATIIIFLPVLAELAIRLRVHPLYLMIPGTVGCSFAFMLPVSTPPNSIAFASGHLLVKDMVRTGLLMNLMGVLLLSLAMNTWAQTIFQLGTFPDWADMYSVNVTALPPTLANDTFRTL

Usually EC50 stands for the concentration giving half of the maximal effect. Take `O=C(O)CCC(=O)O`: the EC50 was 107 µM.

With `O=C(O)CCC(=O)C(=O)O`, the EC50 is 54 µM.
